According to PubChem BioAssay AID1259407 (Chemical Carcinogenesis Research Information System (CCRIS), 2018):
Calls of active or inactive are those of the source. How the calls were made is not given here.

Test system: CCRIS mutagenicity, Ames/micronucleus/aberration tests
Experiment: CCRIS mutagenicity studies

SMILES: CN(C)c1ccccc1
- mutagenic call (End Point: IN VITRO CHROMOSOMAL ABERRATIONS, Test System: CHO CELLS, Metabolic Activation: NONE): active; positive; at highest dose
- mutagenic call (End Point: IN VITRO CHROMOSOMAL ABERRATIONS, Test System: CHO CELLS, Metabolic Activation: RAT, LIVER, S-9, AROCLOR 1254): active; positive
- mutagenic call (End Point: In vitro chromosomal aberrations, Test System: Chinese hamster lung (CHL/IU) cells, Metabolic Activation: Rat, Liver, S9, Phenobarbital and 5,6-benzoflavone): active; positive (structural changes and ploidy)
- mutagenic call (Test System: AMES SALMONELLA TYPHIMURIUM, Strain/Indicator: TA97, Metabolic Activation: HAMSTER, LIVER, S-9, AROCLOR 1254 (10 OR 30%), Method: PREINCUBATION): inactive; negative
- mutagenic call (Test System: AMES SALMONELLA TYPHIMURIUM, Strain/Indicator: TA97, Metabolic Activation: NONE, Method: PREINCUBATION): inactive; negative
- mutagenic call (Test System: AMES SALMONELLA TYPHIMURIUM, Strain/Indicator: TA97, Metabolic Activation: RAT, LIVER, S-9, AROCLOR 1254 (10 OR 30%), Method: PREINCUBATION): inactive; negative
- mutagenic call (Test System: AMES SALMONELLA TYPHIMURIUM, Strain/Indicator: TA98, Metabolic Activation: HAMSTER, LIVER, S-9, AROCLOR 1254 (10 OR 30%), Method: PREINCUBATION): inactive; negative
- mutagenic call (Test System: AMES SALMONELLA TYPHIMURIUM, Strain/Indicator: TA98, Metabolic Activation: HAMSTER, LIVER, S-9, AROCLOR 1254, Method: PREINCUBATION): inactive; negative
- mutagenic call (Test System: AMES SALMONELLA TYPHIMURIUM, Strain/Indicator: TA98, Metabolic Activation: HAMSTER, LIVER, S-9, PHENOBARBITAL AND BETA-NAPHTHOFLAVONE, Method: PREINCUBATION): inactive; negative
- mutagenic call (Test System: AMES SALMONELLA TYPHIMURIUM, Strain/Indicator: TA98, Metabolic Activation: RAT, LIVER, S-9, AROCLOR 1254 (10 OR 30%), Method: PREINCUBATION): inactive; negative
- mutagenic call (Test System: AMES SALMONELLA TYPHIMURIUM, Strain/Indicator: TA98, Metabolic Activation: RAT, LIVER, S-9, AROCLOR 1254, Method: PREINCUBATION): inactive; negative
- mutagenic call (Test System: AMES SALMONELLA TYPHIMURIUM, Strain/Indicator: TA100, Metabolic Activation: HAMSTER, LIVER, S-9, AROCLOR 1254 (10 OR 30%), Method: PREINCUBATION): inactive; negative
- mutagenic call (Test System: AMES SALMONELLA TYPHIMURIUM, Strain/Indicator: TA100, Metabolic Activation: HAMSTER, LIVER, S-9, AROCLOR 1254, Method: PREINCUBATION): inactive; negative
- mutagenic call (Test System: AMES SALMONELLA TYPHIMURIUM, Strain/Indicator: TA100, Metabolic Activation: HAMSTER, LIVER, S-9, PHENOBARBITAL AND BETA-NAPHTHOFLAVONE, Method: PREINCUBATION): inactive; negative
- mutagenic call (Test System: AMES SALMONELLA TYPHIMURIUM, Strain/Indicator: TA100, Metabolic Activation: RAT, LIVER, S-9, AROCLOR 1254 (10 OR 30%), Method: PREINCUBATION): inactive; negative
- mutagenic call (Test System: AMES SALMONELLA TYPHIMURIUM, Strain/Indicator: TA100, Metabolic Activation: RAT, LIVER, S-9, AROCLOR 1254, Method: PREINCUBATION): inactive; negative
- mutagenic call (Test System: AMES SALMONELLA TYPHIMURIUM, Strain/Indicator: TA102, Metabolic Activation: HAMSTER, LIVER, S-9, PHENOBARBITAL AND BETA-NAPHTHOFLAVONE, Method: PREINCUBATION): inactive; negative
- mutagenic call (Test System: AMES SALMONELLA TYPHIMURIUM, Strain/Indicator: TA102, Metabolic Activation: HAMSTER, LIVER, S-9, SODIUM PHENOBARBITAL AND 5,6-BENZOFLAVONE, Method: PREINCUBATION): inactive; negative
- mutagenic call (Test System: AMES SALMONELLA TYPHIMURIUM, Strain/Indicator: TA102, Metabolic Activation: NONE, Method: PREINCUBATION): inactive; negative
- mutagenic call (Test System: AMES SALMONELLA TYPHIMURIUM, Strain/Indicator: TA104, Metabolic Activation: HAMSTER, LIVER, S-9, PHENOBARBITAL AND BETA-NAPHTHOFLAVONE, Method: PREINCUBATION): inactive; negative
- mutagenic call (Test System: AMES SALMONELLA TYPHIMURIUM, Strain/Indicator: TA104, Metabolic Activation: HAMSTER, LIVER, S-9, SODIUM PHENOBARBITAL AND 5,6-BENZOFLAVONE, Method: PREINCUBATION): inactive; negative
- mutagenic call (Test System: AMES SALMONELLA TYPHIMURIUM, Strain/Indicator: TA104, Metabolic Activation: NONE, Method: PREINCUBATION): inactive; negative
- mutagenic call (Test System: AMES SALMONELLA TYPHIMURIUM, Strain/Indicator: TA1535, Metabolic Activation: HAMSTER, LIVER, S-9, AROCLOR 1254, Method: PREINCUBATION): inactive; negative
- mutagenic call (Test System: AMES SALMONELLA TYPHIMURIUM, Strain/Indicator: TA1535, Metabolic Activation: HAMSTER, LIVER, S-9, PHENOBARBITAL AND BETA-NAPHTHOFLAVONE, Method: PREINCUBATION): inactive; negative
- mutagenic call (Test System: AMES SALMONELLA TYPHIMURIUM, Strain/Indicator: TA1535, Metabolic Activation: NONE, Method: PREINCUBATION): inactive; negative
- mutagenic call (Test System: AMES SALMONELLA TYPHIMURIUM, Strain/Indicator: TA1535, Metabolic Activation: RAT, LIVER, S-9, AROCLOR 1254, Method: PREINCUBATION): inactive; negative
- mutagenic call (Test System: AMES SALMONELLA TYPHIMURIUM, Strain/Indicator: TA1537, Metabolic Activation: HAMSTER, LIVER, S-9, AROCLOR 1254, Method: PREINCUBATION): inactive; negative
- mutagenic call (Test System: AMES SALMONELLA TYPHIMURIUM, Strain/Indicator: TA1537, Metabolic Activation: HAMSTER, LIVER, S-9, PHENOBARBITAL AND BETA-NAPHTHOFLAVONE, Method: PREINCUBATION): inactive; negative
- mutagenic call (Test System: AMES SALMONELLA TYPHIMURIUM, Strain/Indicator: TA1537, Metabolic Activation: NONE, Method: PREINCUBATION): inactive; negative
- mutagenic call (Test System: AMES SALMONELLA TYPHIMURIUM, Strain/Indicator: TA1537, Metabolic Activation: RAT, LIVER, S-9, AROCLOR 1254, Method: PREINCUBATION): inactive; negative
- mutagenic call (Test System: E. COLI, Strain/Indicator: WP2UVRA/PKM101, Metabolic Activation: HAMSTER, LIVER, S-9, PHENOBARBITAL AND BETA-NAPHTHOFLAVONE, Method: PREINCUBATION): inactive; negative
- mutagenic call (Test System: E. COLI, Strain/Indicator: WP2UVRA/PKM101, Metabolic Activation: NONE, Method: PREINCUBATION): inactive; negative
- mutagenic call (Test System: E. COLI, Strain/Indicator: WP2UVRA, Metabolic Activation: HAMSTER, LIVER, S-9, PHENOBARBITAL AND BETA-NAPHTHOFLAVONE, Method: PREINCUBATION): inactive; negative
- mutagenic call (Test System: E. COLI, Strain/Indicator: WP2UVRA, Metabolic Activation: NONE, Method: PREINCUBATION): inactive; negative
- mutagenic call (Test System: MOUSE LYMPHOMA TYPHIMURIUM, Strain/Indicator: L5178Y (TK+/TK-), Metabolic Activation: RAT, LIVER, S-9, AROCLOR 1254, Method: SUSPENSION/PLATE): active; positive
- mutagenic call (Test System: MOUSE LYMPHOMA, Strain/Indicator: L5178Y (TK+/TK-), Metabolic Activation: NONE, Method: SUSPENSION/PLATE): active; positive
- mutagenic call (Test System: UDS RODENT HEPATOCYTES, Strain/Indicator: THY INCORP (NON-S-PHASE), Metabolic Activation: NONE, Method: AUTORADIOGRAPHY): inactive; negative
